{"source": "ChEMBL document CHEMBL4354864", "about": "“Bicyclic α-Iminophosphonates as High Affinity Imidazoline I2 Receptor Ligands for Alzheimer's Disease” (J Med Chem, 2020)", "key": {"[1]": {"target": "Nischarin (Homo sapiens, UniProt Q9Y2I1)", "sequence (Q9Y2I1 whole entry)": "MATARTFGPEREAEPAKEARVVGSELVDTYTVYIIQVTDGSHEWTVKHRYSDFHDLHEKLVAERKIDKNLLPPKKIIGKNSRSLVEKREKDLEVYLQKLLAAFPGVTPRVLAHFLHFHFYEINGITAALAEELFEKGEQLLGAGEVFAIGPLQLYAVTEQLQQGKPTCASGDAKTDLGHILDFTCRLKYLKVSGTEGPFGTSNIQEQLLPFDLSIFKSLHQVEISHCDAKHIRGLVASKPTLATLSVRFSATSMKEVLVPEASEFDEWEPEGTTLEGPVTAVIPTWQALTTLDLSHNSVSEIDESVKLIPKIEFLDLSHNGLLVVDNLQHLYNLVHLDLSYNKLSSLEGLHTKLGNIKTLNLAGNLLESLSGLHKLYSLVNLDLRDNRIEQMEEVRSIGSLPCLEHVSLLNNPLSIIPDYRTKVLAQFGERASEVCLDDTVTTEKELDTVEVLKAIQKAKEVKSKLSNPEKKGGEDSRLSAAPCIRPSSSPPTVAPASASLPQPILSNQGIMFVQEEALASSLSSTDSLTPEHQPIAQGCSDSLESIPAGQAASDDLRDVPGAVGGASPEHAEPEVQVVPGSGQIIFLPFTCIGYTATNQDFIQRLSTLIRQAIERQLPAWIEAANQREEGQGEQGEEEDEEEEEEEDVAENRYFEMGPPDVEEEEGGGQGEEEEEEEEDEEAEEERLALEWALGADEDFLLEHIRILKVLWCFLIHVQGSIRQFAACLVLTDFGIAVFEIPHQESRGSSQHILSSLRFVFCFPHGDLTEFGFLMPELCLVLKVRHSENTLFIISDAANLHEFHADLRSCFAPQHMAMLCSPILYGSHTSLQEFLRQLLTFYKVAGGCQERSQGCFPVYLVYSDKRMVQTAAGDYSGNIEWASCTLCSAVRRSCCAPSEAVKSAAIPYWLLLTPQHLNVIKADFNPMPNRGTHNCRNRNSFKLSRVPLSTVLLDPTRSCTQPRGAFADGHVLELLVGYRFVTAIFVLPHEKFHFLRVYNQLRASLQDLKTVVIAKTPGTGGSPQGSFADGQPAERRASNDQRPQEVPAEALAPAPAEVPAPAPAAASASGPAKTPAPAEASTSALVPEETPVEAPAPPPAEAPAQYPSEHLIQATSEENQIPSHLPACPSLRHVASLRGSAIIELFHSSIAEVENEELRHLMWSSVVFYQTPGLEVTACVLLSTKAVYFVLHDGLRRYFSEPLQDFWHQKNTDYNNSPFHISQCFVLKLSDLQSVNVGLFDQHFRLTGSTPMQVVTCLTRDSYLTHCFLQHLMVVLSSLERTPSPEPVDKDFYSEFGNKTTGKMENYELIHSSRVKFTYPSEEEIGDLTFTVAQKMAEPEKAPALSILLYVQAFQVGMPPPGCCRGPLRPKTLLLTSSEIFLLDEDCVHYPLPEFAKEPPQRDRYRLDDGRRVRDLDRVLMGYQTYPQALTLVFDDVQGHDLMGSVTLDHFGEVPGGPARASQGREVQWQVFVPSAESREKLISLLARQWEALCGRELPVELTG", "assay": "Displacement of [3H]clonidine from I1IR in human brain frontal cortex in presence of adrenaline incubated for 45 mins by liquid scintillation spectrometry", "format": "tissue-based"}, "[2]": {"system": "Mus musculus", "assay": "Cognitive enhancing effect in mouse model of 5xFAD assessed as increase in recognition memory at 5 mg/kg, po administered for 28 days and measured after 24 hrs of last dosage by novel object recognition test", "format": "functional, organism-based"}, "[3]": {"system": "Mus musculus", "assay": "Antineuroinflammatory activity in mouse model of 5xFAD assessed as effect on iNOS expression at 5 mg/kg, po administered for 4 weeks by qRT-PCR analysis", "format": "functional, organism-based"}, "[4]": {"system": "Mus musculus", "assay": "Antineuroinflammatory activity in mouse model of 5xFAD assessed as reduction in H2O2 level at 5 mg/kg, po administered for 4 weeks", "format": "functional, organism-based"}, "[5]": {"system": "Vero", "assay": "Cytotoxicity against monkey Vero cells assessed as effect on cell morphology at 100 uM incubated for 3 to 5 days by microscopic analysis", "format": "cell-based", "details": "chlorocebus sabaeus"}, "[6]": {"system": "Mus musculus", "assay": "Antineuroinflammatory activity in mouse model of 5xFAD assessed as reduction in TNFalpha expression at 5 mg/kg, po administered for 4 weeks by qRT-PCR analysis", "format": "functional, organism-based"}, "[7]": {"assay": "Solubility of compound in 99% PBS buffer incubated for 2 hrs by nephelometry", "format": "physicochemical"}, "[8]": {"system": "Mus musculus", "assay": "Antineuroinflammatory activity in mouse model of 5xFAD assessed as reduction in sAPPbeta expression at 5 mg/kg, po administered for 4 weeks by Western blot analysis", "format": "functional, organism-based"}, "[9]": {"assay": "Stability in rat liver microsomes at 5 uM incubated for 60 mins by UPLC-MS/MS analysis", "format": "ADME, Microsome", "details": "1 h"}, "[10]": {"assay": "Solubility of compound in methanol incubated for 2 hrs by nephelometry", "format": "physicochemical"}, "[11]": {"target": "T1, Gastrin/cholecystokinin type B receptor (Homo sapiens, UniProt P32239)", "T1 sequence (P32239 whole entry)": "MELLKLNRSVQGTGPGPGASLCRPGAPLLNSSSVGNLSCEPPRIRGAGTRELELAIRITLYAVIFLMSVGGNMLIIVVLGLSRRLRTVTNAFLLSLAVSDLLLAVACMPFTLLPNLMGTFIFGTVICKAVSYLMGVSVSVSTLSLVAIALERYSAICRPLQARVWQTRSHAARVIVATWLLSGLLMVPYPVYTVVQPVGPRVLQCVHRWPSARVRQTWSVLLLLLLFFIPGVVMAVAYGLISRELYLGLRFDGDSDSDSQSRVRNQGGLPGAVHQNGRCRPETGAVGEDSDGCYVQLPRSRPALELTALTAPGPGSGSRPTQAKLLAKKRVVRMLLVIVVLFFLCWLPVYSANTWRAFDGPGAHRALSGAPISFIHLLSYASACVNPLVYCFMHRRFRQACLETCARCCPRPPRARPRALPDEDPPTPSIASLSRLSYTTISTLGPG", "assay": "Displacement of [125I]CCK-8s from human CCKB incubated for 60 mins by scintillation counting method"}, "[12]": {"system": "Mus musculus", "assay": "Induction of hypothermia in CD-1 mouse assessed as reduction in body temperature at 20 mg/kg, ip administered for 5 days by thermometric method", "format": "functional, organism-based"}, "[13]": {"system": "HeLa", "assay": "Cytotoxicity against human HeLa cells assessed as reduction in cell viability at 100 uM incubated for 3 to 5 days by colorimetric analysis", "format": "cell-based"}, "[14]": {"system": "MT4", "assay": "Cytotoxicity against human MT4 cells assessed as effect on cell morphology at 100 uM incubated for 3 to 5 days by microscopic analysis", "format": "cell-based", "details": "mt4, 100 µM"}, "[15]": {"system": "HeLa", "assay": "Cytotoxicity against human HeLa cells assessed as effect on cell morphology at 100 uM incubated for 3 to 5 days by microscopic analysis", "format": "cell-based"}, "[16]": {"target": "T2, Cytochrome P450 1A2 (Homo sapiens, UniProt P05177)", "T2 sequence (P05177 whole entry)": "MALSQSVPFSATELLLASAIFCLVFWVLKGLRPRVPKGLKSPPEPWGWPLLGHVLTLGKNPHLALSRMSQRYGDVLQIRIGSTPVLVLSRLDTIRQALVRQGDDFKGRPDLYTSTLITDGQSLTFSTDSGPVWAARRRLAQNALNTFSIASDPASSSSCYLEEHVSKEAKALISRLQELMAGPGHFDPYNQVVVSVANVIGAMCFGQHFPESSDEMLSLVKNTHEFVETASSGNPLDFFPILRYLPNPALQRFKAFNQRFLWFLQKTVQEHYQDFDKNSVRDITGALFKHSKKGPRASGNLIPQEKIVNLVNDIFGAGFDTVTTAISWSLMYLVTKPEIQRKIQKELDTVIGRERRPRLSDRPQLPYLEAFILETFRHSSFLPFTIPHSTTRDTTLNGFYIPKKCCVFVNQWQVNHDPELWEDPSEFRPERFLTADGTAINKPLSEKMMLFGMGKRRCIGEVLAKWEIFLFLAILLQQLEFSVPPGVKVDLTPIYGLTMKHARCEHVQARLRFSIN", "assay": "Inhibition of recombinant human CYP1A2 at 10 uM using 3-cyano-7-ethoxycoumarin as substrate incubated for 5 mins followed by substrate addition by fluorescence based assay", "format": "ADME", "details": "recombinant enzyme"}, "[17]": {"assay": "Chemical stability of compound by HPLC analysis", "format": "physicochemical"}, "[18]": {"system": "Mus musculus", "assay": "Effect on FADD in CD-1 mouse at 20 mg/kg, ip administered for 5 days and measured after 1 hr of last dosage by Westernblot analysis", "format": "functional, organism-based"}, "[19]": {"system": "MDCK", "assay": "Cytotoxicity against dog MDCK cells assessed as reduction in cell viability at 100 uM incubated for 3 to 5 days by colorimetric analysis", "format": "cell-based, Canis lupus familiaris"}, "[20]": {"system": "MT4", "assay": "Cytotoxicity against human MT4 cells assessed as reduction in cell viability at 100 uM incubated for 3 to 5 days by colorimetric analysis", "format": "cell-based", "details": "mt4, 100 µM"}, "[21]": {"assay": "Solubility of compound in acetonitrile incubated for 2 hrs by nephelometry", "format": "physicochemical"}, "[22]": {"system": "MDCK", "assay": "Cytotoxicity against dog MDCK cells assessed as effect on cell morphology at 100 uM incubated for 3 to 5 days by microscopic analysis", "format": "cell-based, Canis lupus familiaris"}, "[23]": {"target": "Cytochrome P450 2D6 (Homo sapiens, UniProt P10635)", "sequence (P10635 whole entry)": "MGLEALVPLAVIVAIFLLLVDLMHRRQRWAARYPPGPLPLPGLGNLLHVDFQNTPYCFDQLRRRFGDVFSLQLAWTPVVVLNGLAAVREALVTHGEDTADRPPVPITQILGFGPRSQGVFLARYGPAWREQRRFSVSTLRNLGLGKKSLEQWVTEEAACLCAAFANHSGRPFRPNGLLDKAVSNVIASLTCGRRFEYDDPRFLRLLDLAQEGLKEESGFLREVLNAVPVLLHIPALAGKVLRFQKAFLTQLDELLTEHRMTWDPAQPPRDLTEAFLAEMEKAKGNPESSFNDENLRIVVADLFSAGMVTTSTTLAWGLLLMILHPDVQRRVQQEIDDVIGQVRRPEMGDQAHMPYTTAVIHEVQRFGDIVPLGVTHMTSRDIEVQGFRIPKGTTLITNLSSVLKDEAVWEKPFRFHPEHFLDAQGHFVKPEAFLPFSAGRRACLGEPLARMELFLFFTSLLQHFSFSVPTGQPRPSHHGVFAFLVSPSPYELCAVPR", "assay": "Inhibition of recombinant human CYP2D6 at 10 uM using AMMC as substrate incubated for 5 mins followed by substrate addition by fluorescence based assay", "format": "ADME", "details": "recombinant enzyme"}, "[24]": {"system": "Mus musculus", "assay": "Antineuroinflammatory activity in mouse model of 5xFAD assessed as effect on Hmox1 expression at 5 mg/kg, po administered for 4 weeks by qRT-PCR analysis", "format": "functional, organism-based"}, "[25]": {"assay": "Displacement of [3H]2-BFI from I2IR in Swiss mouse brain cortex incubated for 45 mins by liquid scintillation spectrometry"}, "[26]": {"assay": "Displacement of [3H]2-BFI from I2IR in Sprague-Dawley rat brain cortex incubated for 45 mins by liquid scintillation spectrometry"}, "[27]": {"assay": "Solubility of compound in 1% DMSO incubated for 2 hrs by nephelometry", "format": "physicochemical"}, "[28]": {"system": "Mus musculus", "assay": "Effect on FADD in CD-1 mouse at 20 mg/kg, ip measured after 1 hr by Westernblot analysis", "format": "functional"}, "[29]": {"system": "Mus musculus", "assay": "Cognitive enhancing effect in mouse model of 5xFAD assessed as increase in recognition memory at 5 mg/kg, po administered for 28 days and measured after 2 hrs of last dosage by novel object recognition test", "format": "functional, organism-based"}, "[30]": {"system": "Mus musculus", "assay": "Antineuroinflammatory activity in mouse model of 5xFAD assessed as reduction in Cxcl10 expression at 5 mg/kg, po administered for 4 weeks by qRT-PCR analysis", "format": "functional, organism-based"}}, "note": "Calls of active or inactive are those of the source. The calls are words filed in the database; no cut-off is given here.", "data": [{"molecule": "CCOP(=O)(OCC)C1(c2ccccc2)N=CC2C(=O)N(c3ccc(F)c(Cl)c3)C(=O)C21", "note": "(racemic)", "values": [{"measurement": "IC50", "setting": "[1]", "value": 912, "unit": "µM"}, {"measurement": "Ki", "setting": "[1]", "value": 912, "unit": "µM"}, {"measurement": "Activity", "setting": "[2]", "value": "Active"}, {"measurement": "Activity", "setting": "[3]", "value": "Active"}, {"measurement": "Activity", "setting": "[4]", "value": "Active"}, {"measurement": "Activity", "setting": "[5]", "value": "Non-Toxic"}, {"measurement": "Activity", "setting": "[6]", "value": "Active"}, {"measurement": "solubility kinetic at 2 h", "setting": "[7]", "value": 92, "unit": "µM"}, {"measurement": "Activity", "setting": "[8]", "value": "Active"}, {"measurement": "Stability", "setting": "[9]", "value": "Stable"}, {"measurement": "solubility", "setting": "[10]", "value": "Soluble"}, {"measurement": "IC50", "setting": "[11]", "value": "> 10", "unit": "µM"}, {"measurement": "T", "setting": "[12]", "value": "inactive"}, {"measurement": "Activity", "setting": "[13]", "value": "Non-Toxic"}, {"measurement": "Activity", "setting": "[14]", "value": "Non-Toxic"}, {"measurement": "Activity", "setting": "[15]", "value": "Non-Toxic"}, {"measurement": "inhibition (INH)", "setting": "[16]", "value": "Not Active"}, {"measurement": "Stability", "setting": "[17]", "value": 100, "unit": "%"}, {"measurement": "Activity", "setting": "[18]", "value": "inactive"}, {"measurement": "Activity", "setting": "[19]", "value": "Non-Toxic"}, {"measurement": "Activity", "setting": "[20]", "value": "Non-Toxic"}, {"measurement": "solubility", "setting": "[21]", "value": "Soluble"}, {"measurement": "Activity", "setting": "[22]", "value": "Non-Toxic"}, {"measurement": "inhibition (INH)", "setting": "[23]", "value": "Not Active"}, {"measurement": "Activity", "setting": "[24]", "value": "Active"}, {"measurement": "pKi", "setting": "[25]", "value": 6.41}, {"measurement": "pKi", "setting": "[26]", "value": 6.92}, {"measurement": "solubility kinetic at 2 h", "setting": "[27]", "value": 92, "unit": "µM"}, {"measurement": "Activity", "setting": "[28]", "value": -30, "unit": "%"}, {"measurement": "Activity", "setting": "[29]", "value": "Active"}, {"measurement": "Activity", "setting": "[30]", "value": "Active"}]}]}
